Reference: BindingDB's records for patent US20230322706 (Lg Chem, 2023)

Target: T1, Diacylglycerol O-acyltransferase 2 (Homo sapiens, UniProt Q96PD7)
T1 sequence (Q96PD7 whole entry): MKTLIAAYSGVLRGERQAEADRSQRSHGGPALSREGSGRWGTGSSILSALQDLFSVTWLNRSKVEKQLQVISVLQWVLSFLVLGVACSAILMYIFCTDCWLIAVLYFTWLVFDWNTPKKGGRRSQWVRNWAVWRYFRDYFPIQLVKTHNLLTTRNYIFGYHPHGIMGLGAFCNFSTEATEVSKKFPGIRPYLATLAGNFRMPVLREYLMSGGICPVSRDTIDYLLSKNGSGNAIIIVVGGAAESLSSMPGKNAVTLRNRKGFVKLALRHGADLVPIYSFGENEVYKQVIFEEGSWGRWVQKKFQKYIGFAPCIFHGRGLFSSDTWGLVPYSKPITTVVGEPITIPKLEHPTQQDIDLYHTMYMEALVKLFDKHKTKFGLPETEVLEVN
Experiment: Measurement of Inhibitory Effect Against DGAT2 Enzyme Activity
Method: 1. […] In order to prepare the pBacPAK9-DGAT2, which is DGAT2 expression vector, the human DGAT2 gene amplified by polymerase chain reaction (PCR) was cloned into the EcoR1 and Xho1 sites of the pBacPAK9 (clonctech) vector. The nucleotide sequence of the primers used in PCR was the forward primer 5′ […] […] and the reverse primer 5′ […]. The composition of the reaction solution was to contain 50 ng of cDNA clone (OriGene), 200 μM of dATP, dCTP, dTTP, dGTP, 200 nM of each primer, 1 unit of Tag DNA Polymerase (Toyobo), 1x PCR buffer, and the final volume was adjusted to 20 μl. The reaction conditions were denatured at 95° C. for 5 minutes, followed by 30 times of 94° C. for 20 seconds, 60° C. for 20 seconds, and 72° C. for 90 seconds, followed by further reaction at 72° C. for 7 minutes. 2. […] Recombinant human DGAT2 protein was expressed in Sf-21 cells, which are insect cells, by using the BacPack baculovirus expression system (Clontech). The brief manufacturing process is as follows. First, the pBacPAK9-DGAT2 expression vector was transfected with BacPAK6 virus DNA (Bsu36I digest) into sf21 cells using Bacfectin to prepare a recombinant DGAT2 expressing baculovirus. The thus prepared baculovirus was infected with Sf-21 cells at 10 MOI (multiplicity of infection), and after 72 hours, infected insect cells were collected and membrane proteins were isolated. […] Protein concentration was quantified by using the BCA Protein Assay Kit (Thermo Scientific). […] The next day, the amplified scintillation signal (cpm) in Topcounter (Packard) was measured to measure the degree of production of [14C]-labeled triacyl glycerol (TG) as a reaction product. The measured value when the compound was not treated was used as a positive control, and the measured value of the compound treated group was calculated as a relative % to measure the inhibition effect of the compound on TG production.

Structure (SMILES)	IC50 [nM]
CCOc1ccccc1Oc1cccc(-c2cncc(NC(=O)/C=C/c3ccc(C(C)(C)C(=O)O)cc3)n2)c1 [US20230322706, Example 17]	240
CCOC(=O)C(F)(F)c1ccc(CC(=O)Nc2cncc(-c3cncc(Oc4ccccc4OCC)c3)n2)cc1 [US20230322706, Example 6]	120
CCOc1ccccc1Oc1cccc(-c2cncc(NC(=O)Cc3ccc(C(F)(F)C(=O)O)cc3)n2)c1 [US20230322706, Example 14]	3100
